Experimental data from publication PMC6471618, “Comparison of the Sulfonamide Inhibition Profiles of the α-Carbonic Anhydrase Isoforms (SpiCA1, SpiCA2 and SpiCA3) Encoded by the Genome of the Scleractinian Coral Stylophora pistillata” (Marine Drugs, 2019).
“Also recorded” adds a separate entry of the source. Like-named read-outs stand apart in the source and are kept apart here.

Key:
SpiCA3 = SpiCA3 (Stylophora pistillata, UniProt A0A1B0Y357); format: biochemical
Experimental: An Applied Photophysics stopped-flow instrument (Leatherhead, Surrey (UK)) has been used for assaying the CA catalyzed CO2 hydration activity. […] The un-catalyzed rates were determined in the same manner and subtracted from the total observed rates. […] The inhibition constants were obtained by non-linear least-squares methods using PRISM 3 and the Cheng-Prusoff equation, as reported earlier, and represent the mean from at least three different determinations. All CA isoforms were recombinant ones obtained in-house. All salts/small molecules were of the highest purity available, from Sigma-Aldrich (Milan, Italy).

SpiCA1 = molecular target: SpiCA1; parameters: method as in References 12 and 45; conditions: ref References 12 and 45, cited from earlier work; for Ki: coral recombinant isoform, stopped flow CO2 hydrase assay; for SpiCA1 inhibition, in words: authors' grading of the KI values of Table 1
SpiCA2 = molecular target: SpiCA2; parameters: method as in References 12 and 45; conditions: ref References 12 and 45, cited from earlier work; for Ki: coral recombinant isoform, stopped flow CO2 hydrase assay; for SpiCA2 inhibition, in words: authors' grading of the KI values of Table 1
hCA I = molecular target: hCA I; parameters: method as in References 12 and 45; conditions: ref References 12 and 45, cited from earlier work; for Ki: human recombinant isozyme, stopped flow CO2 hydrase assay; for hCA I inhibition, in words: authors' grading of the KI values of Table 1
[1] = tested on: coral calcification rates; parameters: method as in PMID 27513959; conditions: cited from earlier work
hCA II = tested on: hCA II; parameters: method as in References 12 and 45; conditions: cited from earlier work
[2] = recombinant coral isoform, stopped-flow CO2 hydration, 20 mM TRIS pH 8.3, 15 min preincubation; errors 5–10%, 3 assays; read-out: KI SpiCA3
[3] = authors' grading of the KI values of Table 1
[4] = read-out: KI SpiCA3; recombinant coral isoform, stopped-flow CO2 hydration, 20 mM TRIS pH 8.3, 15 min preincubation; errors 5–10%, 3 assays

SpiCA3, sequence (A0A1B0Y357 entry or part of it): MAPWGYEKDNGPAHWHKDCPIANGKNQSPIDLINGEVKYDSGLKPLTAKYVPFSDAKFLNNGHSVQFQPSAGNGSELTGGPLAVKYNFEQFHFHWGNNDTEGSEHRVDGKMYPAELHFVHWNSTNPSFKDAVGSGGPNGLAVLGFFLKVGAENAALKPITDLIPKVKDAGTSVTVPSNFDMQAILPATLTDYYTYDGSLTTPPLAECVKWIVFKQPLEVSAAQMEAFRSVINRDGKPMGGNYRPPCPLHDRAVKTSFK

Row | SMILES | Ki (SpiCA3; [2]) [nM] | Ki (SpiCA1) [nM] | SpiCA3 inhibition, in words (SpiCA3; [3]) | other results
1 | CC(=O)/N=c1/sc(S(N)(=O)=O)nn1C [MZA, methazolamide] | 821 | 21 |  | 
2 | NS(=O)(=O)c1ccc(CO)cc1 [Compound 16] | 199 |  |  | 
3 | NS(=O)(=O)c1ccc(CCNS(=O)(=O)c2ccc([N+](=O)[O-])cc2CO)cc1 [Compound 21] | 53 |  | well inhibited | 
4 | Nc1nnc(S(N)(=O)=O)s1 [Compound 13] | 275 | 105 |  | 
5 | CCN1CCCC1CNC(=O)c1cc(S(N)(=O)=O)ccc1OC (centres unmarked) [SLP, Sulpiride] |  |  | worst inhibitors | 
6 | Nc1ccc(S(N)(=O)=O)cc1Br [Compound 9] | 918 | 104 |  | Ki (SpiCA2): 540 nM
7 | NS(=O)(=O)c1cccc(S(N)(=O)=O)c1 [Compound 3] | 667 |  |  | Ki (hCA I): 79 nM
8 | NCc1ccc(S(N)(=O)=O)cc1 [Compound 5] |  | 83 | worst inhibitors | Ki (SpiCA2): 508 nM
9 | CCOc1ccc2nc(S(N)(=O)=O)sc2c1 [EZA, ethoxzolamide] |  |  |  | inhibition of coral calcification rates [1]: up to 73%
10 | Nc1ccc(S(N)(=O)=O)cc1F [Compound 7] |  | 75 | worst inhibitors | 
11 | Cn1nc(S(N)(=O)=O)sc1=N [Compound 14] | 578 | 92 |  | 
12 | Cc1onc(-c2ccccc2)c1-c1ccc(S(N)(=O)=O)cc1 [VLX, valdecoxib] |  |  |  | SpiCA2 inhibition, in words (SpiCA2): ineffective
13 | Nc1nccc(Nc2ccc(S(N)(=O)=O)cc2)n1 [Compound 19] |  | 25 | well inhibited | Ki (SpiCA3; [4]): 83 nM
14 | NS(=O)(=O)c1ccc(O)cc1 [Compound 15] | 487 |  |  | 
15 | Nc1ccc(S(=O)(=O)NCCc2ccc(S(N)(=O)=O)cc2)cc1 [Compound 24] |  |  | well inhibited | Ki (SpiCA3; [4]): 46 nM
16 | Nc1cc(Cl)c(S(N)(=O)=O)cc1S(N)(=O)=O [Compound 12] | 430 | 295 |  | 
17 | NS(=O)(=O)c1ccc(C(=O)O)cc1 [Compound 18] | 241 | 30 |  | 
18 | Nc1ccc(S(=O)(=O)Nc2nnc(S(N)(=O)=O)s2)cc1 [Compound 20] |  | 28 | well inhibited | Ki (SpiCA3; [4]): 74 nM
19 | O=C1NS(=O)(=O)c2ccccc21 [SAC, Saccharin] |  | 40 | worst inhibitors | Ki (hCA I): 18500 nM; Ki (SpiCA2): 104 nM

Row | SMILES | Ki (SpiCA3; [2]) [nM] | Ki (SpiCA1) [nM] | SpiCA3 inhibition, in words (SpiCA3; [3]) | other results
20 | Nc1ccc(S(N)(=O)=O)cc1 [Compound 2] |  | 364 | worst inhibitors | 
21 | NS(=O)(=O)c1ccc(CCO)cc1 [Compound 17] |  | 770 | well inhibited | Ki (SpiCA3; [4]): 66 nM
22 | Cc1ccc(-c2cc(C(F)(F)F)nn2-c2ccc(S(N)(=O)=O)cc2)cc1 [CLX, celecoxib] |  | 34 | worst inhibitors; also recorded: low potency inhibitors | hCA I inhibition, in words (hCA I): didn’t affect the hCAI activity; SpiCA1 inhibition, in words (SpiCA1): high potency inhibitors; SpiCA2 inhibition, in words (SpiCA2): low potency inhibitors; Ki (SpiCA2): 690 nM
23 | Nc1ccc(S(=O)(=O)Nc2ccc(S(N)(=O)=O)cc2)cc1 [Compound 22] | 568 |  |  | 
24 | CCN[C@H]1C[C@H](C)S(=O)(=O)c2sc(S(N)(=O)=O)cc21 [DZA, Dorzolamide] |  |  |  | hCA II inhibition, in words (hCA II): high potency inhibitors; SpiCA1 inhibition, in words (SpiCA1): high potency inhibitors; SpiCA2 inhibition, in words (SpiCA2): low potency inhibitors
25 | Cc1ccc(S(N)(=O)=O)cc1 [Compound 4] |  | 614 |  | Ki (SpiCA3; [4]): 694 nM; Ki (hCA I): 78500 nM; Ki (SpiCA2): 516 nM
26 | NS(=O)(=O)c1cc2c(cc1Cl)NCNS2(=O)=O [HCT, hydrochlorothiazide] |  |  |  | Ki (SpiCA3; [4]): 243 nM
27 | NS(=O)(=O)c1ccc(N2CCCCS2(=O)=O)cc1 [SLT, sulthiame] | 251 |  |  | 
28 | NCCc1ccc(S(N)(=O)=O)cc1 [Compound 6] |  | 94 | worst inhibitors | Ki (SpiCA2): 577 nM
29 | CC(=O)Nc1nnc(S(N)(=O)=O)s1 [AAZ, acetazolamide] |  |  |  | inhibition of coral calcification rates [1]: up to 73%
30 | Nc1ccc(S(N)(=O)=O)cc1Cl [Compound 8] | 1810 | 88 | worst inhibitors | 
31 | Nc1cc(C(F)(F)F)c(S(N)(=O)=O)cc1S(N)(=O)=O [Compound 11] |  | 367 |  | Ki (SpiCA3; [4]): 856 nM
32 | CC1(C)O[C@@H]2[C@@H](CO[C@@]3(COS(N)(=O)=O)OC(C)(C)O[C@@H]23)O1 [TPM, topiramate] |  | 29 | worst inhibitors | Ki (SpiCA2): 367 nM
33 | NS(=O)(=O)c1ccc(S(=O)(=O)Nc2cccc3c(Cl)c[nH]c23)cc1 [IND, indisulam] | 92 | 163 | well inhibited | Ki (SpiCA2): 394 nM
34 | CCN[C@H]1CN(CCCOC)S(=O)(=O)c2sc(S(N)(=O)=O)cc21 [BRZ, brinzolamide] |  | 48 | low potency inhibitors | hCA II inhibition, in words (hCA II): high potency inhibitors; Ki (SpiCA3; [4]): 250 nM; hCA I inhibition, in words (hCA I): didn’t affect the hCAI activity; SpiCA1 inhibition, in words (SpiCA1): high potency inhibitors; SpiCA2 inhibition, in words (SpiCA2): low potency inhibitors; Ki (SpiCA2): 169 nM
35 | Nc1ccc(S(=O)(=O)NCc2ccc(S(N)(=O)=O)cc2)cc1 [Compound 23] | 62 |  | well inhibited | 
36 | NS(=O)(=O)c1nnc(NS(=O)(=O)c2ccccc2)s1 [BZA, benzolamide] |  | 20 |  | Ki (SpiCA3; [4]): 394 nM; Ki (SpiCA2): 214 nM
37 | NS(=O)(=O)Cc1noc2ccccc12 [ZNS, zonisamide] |  | 259 | worst inhibitors | Ki (SpiCA2): 645 nM
